Earlier results, collected in patent publication EP0228223A2, “Non-irritating suprofen solution” (Cilag AG, priority 1985, dated 1987).
Entries after “also recorded” stand apart in the source; their conditions may differ.

Assays:
[1] = preparation swallowed; appears only seconds after swallowing, disappears within minutes

| SMILES | solubility in organic solvents and base (methanol, ethanol, chloroform, acetone, polyethylene glycol and 1.0 N sodium hydroxide) | solubility in water (water) | irritation in the throat [1] |
| --- | --- | --- | --- |
| CC(C(=O)O)c1ccc(C(=O)c2cccs2)cc1 (stereo not shown) [Suprofen, p-(2-thenoyl)hydratropic acid] | freely soluble | poorly soluble; also recorded: very slightly soluble | very characteristic irritation |
| CC(C(=O)O)c1ccc(C(=O)c2cccs2)cc1 (stereo not shown) [suprofen-sodium] |  |  | irritation effect occurs |
